The target in test [1] is T1, lipoxygenase from rabbit reticulocytes (Oryctolagus cuniculus, UniProt P12530).
T1 construct: The lipoxygenase from rabbit reticulocytes is obtained in electrophoretically and immunologically pure form; from tissue; host or cells: rabbit reticulocytes
T1 sequence (P12530 1-663): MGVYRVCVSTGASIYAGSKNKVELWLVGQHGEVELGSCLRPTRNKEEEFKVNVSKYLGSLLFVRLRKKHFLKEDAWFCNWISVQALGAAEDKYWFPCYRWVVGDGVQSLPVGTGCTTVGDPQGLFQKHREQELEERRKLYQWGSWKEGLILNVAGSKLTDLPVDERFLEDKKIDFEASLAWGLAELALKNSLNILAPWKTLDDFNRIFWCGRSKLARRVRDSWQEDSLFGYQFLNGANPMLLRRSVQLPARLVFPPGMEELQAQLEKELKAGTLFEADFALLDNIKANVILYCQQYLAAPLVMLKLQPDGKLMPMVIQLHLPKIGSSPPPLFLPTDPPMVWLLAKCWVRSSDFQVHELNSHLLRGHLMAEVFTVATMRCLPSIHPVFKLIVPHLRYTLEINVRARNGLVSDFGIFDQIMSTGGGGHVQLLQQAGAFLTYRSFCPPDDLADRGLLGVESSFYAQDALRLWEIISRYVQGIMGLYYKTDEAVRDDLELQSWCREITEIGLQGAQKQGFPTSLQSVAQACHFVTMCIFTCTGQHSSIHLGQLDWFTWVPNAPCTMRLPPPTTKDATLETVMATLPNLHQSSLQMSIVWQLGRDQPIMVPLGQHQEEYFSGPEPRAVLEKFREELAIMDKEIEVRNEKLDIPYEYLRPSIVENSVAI
Nature of the test: Inhibition of the activity of lipoxygenase from rabbit reticulocytes (oxygen consumption, Clark electrode). It counts as biochemical. To be noted: for IC84: read-out: I84. Here is the method:
The lipoxygenase from rabbit reticulocytes was obtained in electrophoretically and immunologically pure form according to a technique known from the literature (S. M. Rapoport et al. Methods in Enzymology 71, 430 (1981)). The determination of lipoxygenase activity follows at 25° C. through the polarographic measurement of the oxygen consumption by means of Clark Electrode in a standardized system.
Through variation of the substance concentrations, the titration curves of the inhibition and therefrom the inhibition concentrations (I-value) of the compounds can be determined.
The testing of compounds for antiasthmatic, antiallergenic, inflammation-inhibiting and antithrombotic activity on the basis on the inhibition of the lipoxygenase reaction of the arachidonic acid cascade follows in a molecular/pharmacological test system. […] The lipoxygenase from rabbit reticulocytes is obtained in electrophoretically and immunologically pure form according to the techniques described in the literature (supra). The determination of the lipoxygenase activity follows at 25° C. through the polorographic measurement of oxygen consumption by means of a Clark-electrode in the following system: 0.1M potassiumphosphate, pH 7.4, with 0.2 percent sodium cholate and 0.53 mM linoleic acid. The enzyme concentration in the measurement preparation came to 25 nM. The compounds to be tested are dissolved in methylglycol (freshly distilled in a vacuum) and pre-incubated for 15 minutes at the measuring temperature in the absence of sodium cholate and linoleic acid. […] The enzyme reaction is started by the addition of sodium cholate and linoleic acid.

Test [2] concerns guinea pig lung strips. In words: Arachidonic acid-induced spasm of isolated guinea pig lung strips. To be noted: active substance 100 μM. An excerpt: They display in animal experimental tests on isolated lung strips from guinea pigs a pronounced antiasthmatic effect. The testing of the mentioned pharmacological characteristics follows according to the principles of measuring techniques known from the literature, which come into use in modified form (G. M. Drazen et al. G. Clin. Invest. 63 1 (1979); M. W. Schneider and G. M. Drazen Amer. Rev. Resp. Dis. 121 835 (1980); S. S. Yen and W. Kreutner, Agents Actions 10 274 (1980); S. S. Yen Prostaglandins 22, 183 (1981)).
The compounds of Formula I effect a significant restraint on arachidonic acid-induced bronchial constriction (1.5.10^-5 M arachidonic acid) in the guinea pig lung preparations (see, Example 6). Also with the addition of a cyclooxygenase inhibitor to the measuring system this effect was unaltered, and to some extent stronger, detectably. These experimental results permit without a doubt the conclusion that the compounds of Formula I involve inhibitors of the lipoxygerase pathway of arachidonic utilization, and the above described pharmacological effect is grounded upon this mechanism of activity.
(§1) The testing of the compounds for antiasthmatic activity follows on isolated lung strips and isolated tracheal rings from guinea pigs according to measuring methods known from the literature (supra) in modified form. The measurements follow in thermostatically controlled organ bath, isotonically using a contraction measuring arrangement with lift receiver, measuring coil, measuring amplifier (inductive measurement with the aid of a high frequency resonant circuit). The gasification follows with air. The suspension solution has the following composition: 39.46 g NaCl, 2.2 g KCl, 6.07 g Tris, 1.0 g CaCl2, 9.9 g glucose, 1.0 ml saturated MgCl2 -solution, 43 ml 1N HCl; pH 7.4.
(a) Activity on spasm of the guinea pig lung strips, induced by exogenous arachidonic acid.
The spasm is triggered by rising concentrations of arachidonic acid (concentrated solution in ethanol, stored in N2 -atmosphere) and is cumulatively measured. […] The active substance caused a highly significant displacement to the right of the Dose-Activity curves for arachidonic acid, visible by a clear elevation of the ED50 - and ED84 -values. The effect can be described through the following activity index: [formula] In an analogous manner, the index i84 is determined from the measured data.

In test [3] the test system is guinea pig lung strips. Nature of the test: Activity on the basal tones of guinea pig lung strips. To be noted: Cavia porcellus, basal tone, cumulative dose-activity curve.
Source text: as §1
(c) Activity on the basal tones of guinea pig lung strips.
Increasing concentrations of the active substance are added to the suspension medium. There occurs a dilatation, which is cumulatively measured. From the Dose-Activity-curves are provided the following parameters: […]

In another test the test system is thrombocyte aggregation. Nature of the test: Arachidonic acid-induced thrombocyte aggregation in thrombocyte-rich plasma. It counts as cell-based, humans. The following applies: Homo sapiens; 0.8 mM arachidonic acid; concentration giving total restraint of aggregation. An excerpt: Since with the new medicines the restraints of lipoxygenase has been identified as a molecular type of attack, also their influence on the thrombocyte-aggregation has been tested. The essential role of the lipoxygenase pathway for irreversibility of the thrombocyte aggregation is now known. (C. E. Dutilh et al. Prostaglandins and Medicine 6, 111 (1981)). The key role is attributed to the irreversibility of the thrombocyte aggregation in the pathogenesis of thrombotic illnesses. […] In the experiments, the thrombocyte aggregation was triggered either by means of arachidonic acid or by means of platelet activation factor (PAF-Acether).
The testing of the compounds for antithrombotic and thrombolytic activity follows in authentic cell systems of humans in vitro. Thrombocyte-rich plasma from the blood of healthy donors is obtained by centrifugation at 1,000×g. The measurement of the thrombocyte aggregation follows by means of an aggregometer based upon diffuse light scattering or light absorption of the produced cell aggregate. The thrombocyte-rich plasma is pre-incubated at 37° C. for 3 minutes with the active substance or substances; thereafter the thrombocyte aggregation is triggered through the addition of either 0.8 mM arachidonic acid or 1 μM platelet activation factor (PAF-acether). The preparations are then stirred with a velocity of 800 rpm. Indeed according to the employed active substance concentration there occurs either a strong delay or a complete inhibition of the thrombocyte aggregation.

A further test concerns guinea pig trachia. In words: Carbachol-induced spasm of guinea pig trachea. The following applies: Cavia porcellus; spasm triggered by 3.9 μM carbachol; read-out: active substance concentration at which strong to very strong dilatation was clearly determinable.
Source text: as §1
(b) Activity on the carbachol-induced spasm of guinea pig trachia
The spasms are triggered by 3.9 μM carbachol.

The mark [4] stands for this setting: 25° C., pH 7.4, 0.53 mM linoleic acid, 15 min pre-incubation, read-out: I50.
Where [5] appears, read: 25° C., pH 7.4, 0.53 mM linoleic acid, 15 min pre-incubation.

Read-outs that look alike come from different tables or passages of the source.

Take `O=C(NO)c1ccc2ccccc2c1O` [1-hydroxy-2-naphthylhydroxamic acid]: in test [1] (setting [4]), the IC50 is 47 µM. For the same compound, the IC84 in test [1] (setting [5]) was determined as 500 µM.
As to `CCC(Oc1cccc2ccccc12)C(=O)NO` (centres unmarked) [2(1'-naphthoxy)-2-ethyl-acethydroxamic acid], the IC50 in test [1] (setting [4]) was found to be 42 µM. Moreover, the IC84 in test [1] (setting [5]) was 130 µM.
Consider `O=C(COc1cccc2ccccc12)NO` [2(1'-naphthoxy)-acethydroxamic acid], for which the IC50 in test [1] (setting [4]) was 25 µM. In addition, the IC84 in test [1] (setting [5]) was determined as 60 µM.
Turning to `CCC(Oc1ccc2ccccc2c1)C(=O)NO` (centres unmarked) [2(2'-naphthoxy)-2-ethyl-acethydroxamic acid], in test [1] (setting [4]), the IC50 came out at 32 µM.
With `CC(C)C(Oc1ccc2ccccc2c1)C(=O)NO` (centres unmarked) [2(2'-naphthoxy)-2-i-propyl-acethydroxamic acid], in test [1] (setting [4]), the IC50 was found to be 27 µM.
In the case of `CC(Oc1ccc2ccccc2c1)C(=O)NO` (centres unmarked) [2(2'-naphthoxy)-2-methyl-acethydroxamic acid], in test [1] (setting [4]), the IC50 stood at 40 µM. Moreover, the IC84 in test [1] (setting [5]) was 120 µM.
As to `CCCCC(Oc1ccc2ccccc2c1)C(=O)NO` (centres unmarked) [2(2'-naphthoxy)-2-n-butyl-acethydroxamic acid], in test [1] (setting [4]), the IC50 amounted to 19 µM.
On to `CCCCCCCCCC(Oc1ccc2ccccc2c1)C(=O)NO` (centres unmarked) [2(2'-naphthoxy)-2-n-nonyl-acethydroxamic acid], for which the IC50 in test [1] (setting [4]) came out at 1.5 µM. Moreover, the IC84 in test [1] (setting [5]) came out at 4.8 µM.
On the same counts, the results for `CCCCCCCCC(Oc1ccc2ccccc2c1)C(=O)NO` (centres unmarked) [2(2'-naphthoxy)-2-n-octyl-acethydroxamic acid] are 2.3 µM and 7 µM.
As for `CCCC(Oc1ccc2ccccc2c1)C(=O)NO` (centres unmarked) [2(2'-naphthoxy)-2-n-propyl-acethydroxamic acid], the IC50 in test [1] (setting [4]) was 24 µM.
As for `O=C(CCOc1ccc2ccccc2c1)NO` [3(2'-naphthoxy)-n-propylhydroxamic acid, 3(2'-naphthoxy)-propylhydroxamic acid], in test [1] (setting [4]), the IC50 was 7 µM. Besides, the IC84 in test [1] (setting [5]) is 15 µM.
In test [1], `COc1ccc(O)c(C(C)(C)C)c1` [3-tert.-butyl-4-hydroxy-anisol, reference compound] had an IC50 of 160 µM. In addition, in the test with guinea pig lung strips [2], the “activity index i50 (displacement of arachidonic acid ED50)” value came to 4.6 and the “activity index i84 (displacement of arachidonic acid ED84)” value was determined as 3.6. For the same compound, the EC50 in the test with guinea pig lung strips [3] (read-out: ED50 (dilatation)) turned out to be 61 µM. Moreover, the EC84 in the test on guinea pig lung strips [3] (read-out: ED84 (dilatation)) was 130 µM.
Regarding `O=C(CCCOc1ccc2ccccc2c1)NO` [4(2'-naphthoxy)-n-butyl-hydroxamic acid, 4(2'-naphthoxy)-butylhydroxamic acid], the IC50 in test [1] (setting [4]) is 4 µM. In test [1] (setting [5]), the IC84 is 7.5 µM.
As to `O=[N+]([O-])c1ccc(O)c(O)c1` [4-nitrocatechol, reference compound], the IC50 in test [1] (setting [4]) was determined as 4.6 µM. The IC84 in test [1] (setting [5]) was found to be 16 µM. Besides, in the test on thrombocyte aggregation, the IC100 was determined as 60 µM.
As for `O=C(CCCCOc1ccc2ccccc2c1)NO` [5(2'-naphthoxy)valerylhydroxamic acid, 5(2'-naphthoxy)-valerylhydroxamic acid], the IC50 in test [1] (setting [4]) worked out at 3.5 µM. Further, the IC84 in test [1] (setting [5]) was found to be 6.4 µM.
For `CCCCCCCCC#CCC#CCC#CCCCC(=O)O` [5,8,11-eicosatriicacid, reference compound], the IC50 in test [1] (setting [4]) worked out at 1.3 µM.
For the compound `O=C(CCCCCCCOc1ccc2ccccc2c1)NO` [8(2'-naphthoxy)-octylhydroxamic acid], the IC50 in test [1] (setting [4]) worked out at 2.1 µM. Besides, the IC84 in test [1] (setting [5]) turned out to be 4.6 µM.
As for `NC1=NN(c2cccc(C(F)(F)F)c2)CC1` [BW 755 C, 3-amino-N-(3-trifluoromethylphenyl)-pyrazoline-(2), reference compound], the IC50 in test [1] (setting [4]) stood at 20 µM.
Turning to `CC(Cc1ccc(O)c(O)c1)C(C)Cc1ccc(O)c(O)c1` (centres unmarked) [nordihydroguaiaretic acid, reference compound], in the test on guinea pig trachia, the minimal effective concentration was found to be 50 µM.

These data come from patent US4670469A, “Hydroxamic acid and pharmaceutical preparations containing the same” (VEB Arzneimittelwerk Dresden, priority 1983, dated 1987).
